US20170081300A1, “SYDNONE DERIVATIVES FOR CONJUGATION OF COMPOUNDS OF INTEREST” (UNIVERSITE DE STRASBOURG, priority 2014, published 2017)

Columns and labels:
Type in all cases: physicochemical
[1] = Kinetic study of the coupling reaction of sydnones with cyclic alkyne BCN in PBS/DMSO (HPLC); conditions: for K (BCN), second order kinetic constant: PBS/DMSO (9:1), 100 μM sydnone, 150 μM BCN
Experimental: (§1) The kinetics of the coupling reaction of different sydnones with two cyclic alkynes was studied, according to the following scheme.
(§2) Reactions of sydnones with BCN (or TMTH) were carried out in PBS/DMSO (9:1) mixtures at 100 μM concentration of sydnones and 150 μM concentration of BCN using the following procedure:
(§3) To 900 μL of phosphate buffered saline (PBS, 100 mM) was added 87.5 μL of DMSO, 10 μL of the solution of benzamide (internal standard, 100 mM in DMSO), 1 μL of the solution of sydnone (100 mM in DMSO) and 1.5 μL of the solution of BCN (100 mM in DMSO). The reaction mixture was injected in HPLC every 30 min and the conversion was followed by measuring the normalized sydnone peak area.
(§4) Second order reaction rate was determined by plotting ln([A]/[B])/([A]−[B]) versus time and analyzing by linear regression. Second order rate constant corresponds to the determined slope.

[2] = Kinetic study of the coupling reaction of sydnones with cyclic alkyne TMTH in PBS/DMSO (HPLC); conditions: PBS/DMSO (9:1), 100 μM sydnone
Experimental: as §1, §2, §3, §4

[3] = HPLC monitoring of the cycloaddition reaction with BCN in blood plasma; conditions: 100 μM sydnone, 150 μM BCN, after 1 hour
Experimental: Reactions of sydnone S1-2 with bicyclononyne BCN was carried out in blood plasma at 100 μM concentration of sydnone and 150 μM concentration of cyclooctyne BCN using the following procedure:
as §3, with “blood plasma were” for “phosphate buffered saline (PBS, 100 mM) was”, “added” for “added 87.5 μL of DMSO,”

SMILES	K (BCN), second order kinetic constant [1] [M⁻¹ s⁻¹]	K (TMTH), second order kinetic constant [2] [M⁻¹ s⁻¹]	conversion of sydnone in reaction with BCN [3]	ratio of K constant (BCN) to K constant of the corresponding sydnone not substituted in position 4 ([1]; K(S1-1)/K(S0-3), K(S1-2)/K(S0-4))
O=C(O)c1ccc(-[n+]2cc([O-])on2)cc1 [Sydnone S0-4, 3-(4-carboxyphenyl)-1,2,3λ^5-oxadiazol-3-ylium-5-olate, reference compound]	0.059 ± 0.001			
O=C(O)c1ccc(-[n+]2noc([O-])c2Cl)cc1 [Sydnone S1-2, 3-(4-carboxyphenyl)-4-chloro-1,2,3λ^5-oxadiazol-3-ylium-5-olate]	1.593 ± 0.034	322	almost complete reaction	27
O=C(O)c1ccc(-[n+]2noc([O-])c2Br)cc1 [Sydnone S2-2, 4-bromo-3-(4-carboxyphenyl)-1,2,3λ^5-oxadiazol-3-ylium-5-olate]	0.798 ± 0.065	101		
